Like-named read-outs stand apart in the source and are kept apart here.
How the values were obtained:
[1] = system: IKKε-mediated phosphorylation of IRF3; assay: ELISA for in-situ phosphorylation of IRF3 (phospho-Ser396) in HEK293T cells cotransfected with IRF3 and IKKε; assay type: cell-based; details: Homo sapiens, HEK-293T, 20 h, HEK293T cells, 20 hours, read-out: IC50, in-situ IKKε-mediated phosphorylation of IRF3
Outline: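 HEK293T cells cotransfected with IRF3 and IKKε were treated with compound for 20 h, and lysates were assayed by ELISA for phospho-Ser396 IRF3, normalized to DMSO. Viability was checked in parallel by CellTiter-Glo. For TBK1, cells cotransfected with IRF7 and TBK1 were treated overnight and probed by Western blot for phospho-Ser477/Ser479 IRF7.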

[2] = biological target: T1, IKKε (Homo sapiens, UniProt Q14164); assay: In-vitro IKKε kinase assay (radiolabelled ATP, filterplate); assay type: biochemical
T1 construct: His-tag (in-house Sf9 preparation) or GST-tag (purchased Invitrogen preparation); these are alternatives, not both on one protein; host or cells: Sf9 cells
T1 sequence (Q14164 1-716): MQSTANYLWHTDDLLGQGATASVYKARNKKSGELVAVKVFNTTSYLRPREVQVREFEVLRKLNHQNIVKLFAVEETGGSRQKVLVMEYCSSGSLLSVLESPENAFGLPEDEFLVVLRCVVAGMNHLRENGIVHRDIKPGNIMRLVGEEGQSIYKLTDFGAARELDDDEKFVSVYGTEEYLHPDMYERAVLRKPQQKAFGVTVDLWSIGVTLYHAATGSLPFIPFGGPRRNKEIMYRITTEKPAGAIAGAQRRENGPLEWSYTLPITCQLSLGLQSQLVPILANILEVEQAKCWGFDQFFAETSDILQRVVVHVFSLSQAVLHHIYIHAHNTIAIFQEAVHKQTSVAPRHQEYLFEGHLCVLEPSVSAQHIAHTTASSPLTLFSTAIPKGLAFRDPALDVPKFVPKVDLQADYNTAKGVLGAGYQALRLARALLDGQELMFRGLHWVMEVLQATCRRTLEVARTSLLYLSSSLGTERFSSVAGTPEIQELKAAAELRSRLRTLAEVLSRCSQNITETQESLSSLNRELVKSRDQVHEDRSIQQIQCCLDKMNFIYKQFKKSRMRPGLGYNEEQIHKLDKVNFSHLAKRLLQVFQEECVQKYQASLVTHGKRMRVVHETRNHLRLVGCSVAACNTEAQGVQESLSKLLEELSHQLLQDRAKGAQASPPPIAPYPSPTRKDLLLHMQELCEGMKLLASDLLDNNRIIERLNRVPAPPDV
Outline: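 His-tagged IKKε from Sf9 cells or GST-tagged IKKε, with myelin basic protein, casein or dephosphorylated casein as substrate and 32 μM ATP (2× Km) plus [γ^33]ATP. "Normal" assay used 0.1 μg/ml enzyme; "sensitized" used 0.015 μg/ml with dephosphorylated casein only. Stopped after 30–45 min with phosphoric acid; P-81 filter counts normalized to DMSO after background subtraction.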

[3] = "sensitized" assay, read-out: IC50, inhibition of the kinase activity of IKKε
[4] = in-vitro IKKε kinase inhibition assays, given as 0.005 μM (5 nM), read-out: IKKε kinase inhibitory activity (IC50 value)
[5] = range given from about 1 μM to about 250 nM

| SMILES | IC50 [1] [nM] | IC50 [2, 4] [nM] | IC50 [1, 5] [nM] | IC50 [2, 3] [nM] |
| --- | --- | --- | --- | --- |
| CN(C)c1ccc(Nc2nccc(-c3ccc(NC(=O)C4CC4)c(C#N)c3)n2)cn1 [Example Compound 138, N-[2-Cyano-4-(2-{[6-(dimethylamino)pyridin-3-yl]amino}pyrimidin-4-yl)phenyl]cyclopropanecarboxamide] | < 100 | < 5 |  | < 5 |
| CN(Cc1ccc(Nc2nccc(-c3ccc(OC4CCOCC4)c(C#N)c3)n2)cn1)S(C)(=O)=O [Example Compound 206, N-{[5-({4-[3-Cyano-4-(tetrahydro-2H-pyran-4-yloxy)phenyl]pyrimidin-2-yl}amino)pyridin-2-yl]methyl}-N-methylmethanesulfonamide] | < 100 |  |  | < 5 |
| CCOc1ccc(Nc2nccc(-c3ccc(OC4CCOCC4)c(C#N)c3)n2)cn1 [Example Compound 8, 5-{2-[(6-Ethoxypyridin-3-yl)amino]pyrimidin-4-yl}-2-(tetrahydro-2H-pyran-4-yloxy)benzonitrile] |  | < 5 | 250 to 1000 | < 5 |
| CNC(=O)c1cncc(Nc2nccc(-c3ccc(OC4CCOCC4)c(C#N)c3)n2)c1 [Example Compound 12, 5-({4-[3-Cyano-4-(tetrahydro-2H-pyran-4-yloxy)phenyl]pyrimidin-2-yl}amino)-N-methylpyridine-3-carboxamide] | 1000 to 5000 | < 5 |  | < 5 |
| COCCNc1ncc(-c2ccc(Nc3nccc(-c4ccc(OC5CCOCC5)c(C#N)c4)n3)cn2)cn1 [Example Compound 80, 5-{2-[(6-{2-[(2-Methoxyethyl)amino]pyrimidin-5-yl}pyridin-3-yl)amino]pyrimidin-4-yl}-2-(tetrahydro-2H-pyran-4-yloxy)benzonitrile] | < 100 | < 5 |  |  |
| COCCNC(=O)c1cncc(Nc2nccc(-c3ccc(OC4CCOCC4)c(C#N)c3)n2)c1 [Example Compound 15, 5-({4-[3-Cyano-4-(tetrahydro-2H-pyran-4-yloxy)phenyl]pyrimidin-2-yl}amino)-N-(2-methoxyethyl)pyridine-3-carboxamide] |  | < 5 | 250 to 1000 | < 5 |
| N#Cc1cc(-c2ccnc(Nc3ccc(-n4cncn4)nc3)n2)ccc1OC1CCOCC1 [Example Compound 76, 2-(Tetrahydro-2H-pyran-4-yloxy)-5-(2-{[6-(1H-1,2,4-triazol-1-yl)pyridin-3-yl]amino}pyrimidin-4-yl)benzonitrile] | 100 to 250 | < 5 |  | < 5 |
| Cc1ccc(Nc2nccc(-c3ccc(OC4CCN(C(=O)[C@H](C)O)CC4)c(C#N)c3)n2)cn1 [Example Compound 128, 2-({1-[(2S)-2-Hydroxypropanoyl]piperidin-4-yl}oxy)-5-{2-[(6-methylpyridin-3-yl)amino]pyrimidin-4-yl}benzonitrile] | 1000 to 5000 | < 5 |  | < 5 |
| COc1cc(Nc2nccc(-c3ccc(OC4CCN(C(=O)CO)CC4)c(C#N)c3)n2)ccn1 [Example Compound 131, 2-{[1-(Hydroxyacetyl)piperidin-4-yl]oxy}-5-{2-[(2-methoxypyridin-4-yl)amino]pyrimidin-4-yl}benzonitrile] | 100 to 250 | < 5 |  |  |
| N#Cc1cc(-c2ccnc(Nc3ccnc(N4CC(O)C4)c3)n2)ccc1OC1CCOCC1 [Example Compound 41, 5-(2-{[2-(3-Hydroxyazetidin-1-yl)pyridin-4-yl]amino}pyrimidin-4-yl)-2-(tetrahydro-2H-pyran-4-yloxy)benzonitrile] | 100 to 250 | < 5 |  | < 5 |

Second part, led by results:

| IC50 [1] [nM] | IC50 [2, 4] [nM] | IC50 [1, 5] [nM] | SMILES | IC50 [2, 3] [nM] |
| --- | --- | --- | --- | --- |
| 1000 to 5000 |  |  | COC1CN(Cc2cc(Nc3nccc(-c4ccc(OC5CCOCC5)c(C#N)c4)n3)ccn2)C1 [Example Compound 219, 5-[2-({2-[(3-Methoxyazetidin-1-yl)methyl]pyridin-4-yl}amino)pyrimidin-4-yl]-2-(tetrahydro-2H-pyran-4-yloxy)benzonitrile] | < 5 |
| 100 to 250 |  |  | CC(O)c1ccc(Nc2nccc(-c3ccc(OC4CCOCC4)c(C#N)c3)n2)cn1 (centres unmarked) [Example Compound 231, 5-(2-{[6-(1-Hydroxyethyl)pyridin-3-yl]amino}pyrimidin-4-yl)-2-(tetrahydro-2H-pyran-4-yloxy)benzonitrile] | < 5 |
| 100 to 250 |  |  | COCCNCc1cncc(Nc2nccc(-c3ccc(OC4CCOCC4)c(C#N)c3)n2)c1 [Example Compound 184, 5-{2-[(5-{[(2-Methoxyethyl)amino]methyl}pyridin-3-yl)amino]pyrimidin-4-yl}-2-(tetrahydro-2H-pyran-4-yloxy)benzonitrile] | < 5 |
|  | < 5 | 250 to 1000 | N#Cc1cc(-c2ccnc(Nc3ccnc(CN4CC(O)C4)c3)n2)ccc1OC1CCOCC1 [Example Compound 70, 5-[2-({2-[(3-Hydroxyazetidin-1-yl)methyl]pyridin-4-yl}amino)pyrimidin-4-yl]-2-(tetrahydro-2H-pyran-4-yloxy)benzonitrile] |  |
| 1000 to 5000 | < 5 |  | Cn1cc(-c2cc(Nc3nccc(-c4ccc(O[C@@H]5CCN(C(=O)CO)C5)c(C#N)c4)n3)ccn2)cn1 [Example Compound 126, 2-{[(3R)-1-(Hydroxyacetyl)pyrrolidin-3-yl]oxy}-5-(2-{[2-(1-methyl-1H-pyrazol-4-yl)pyridin-4-yl]amino}pyrimidin-4-yl)benzonitrile] |  |
|  | < 5 | 250 to 1000 | CCN(CC)c1ccc(Nc2nccc(-c3ccc(O[C@@H]4CCN(C(=O)CO)C4)c(C#N)c3)n2)cn1 [Example Compound 117, 5-(2-{[6-(Diethylamino)pyridin-3-yl]amino}pyrimidin-4-yl)-2-{[(3R)-1-(hydroxyacetyl)pyrrolidin-3-yl]oxy}benzonitrile] | < 5 |
| 100 to 250 | < 5 |  | Cc1ccc(Nc2nccc(-c3ccc(OC4CCOCC4)c(C#N)c3)n2)cn1 [Example Compound 7, 5 5-{2-[(6-Methylpyridin-3-yl)amino]pyrimidin-4-yl}-2-(tetrahydro-2H-pyran-4-yloxy)benzonitrile] | < 5 |
|  | < 5 | 250 to 1000 | N#Cc1cc(-c2ccnc(Nc3ccc(-c4cccnc4)nc3)n2)ccc1OC1CCOCC1 [Example Compound 79, 5-[2-(2,3′-Bipyridin-5-ylamino)pyrimidin-4-yl]-2-(tetrahydro-2H-pyran-4-yloxy)benzonitrile] | < 5 |
| 1000 to 5000 |  |  | COc1cc(Nc2nccc(-c3ccc(O[C@@H]4CCN(C(=O)CO)C4)c(C#N)c3)n2)ccn1 [Example Compound 225, 2-{[(3R)-1-(Hydroxyacetyl)pyrrolidin-3-yl]oxy}-5-{2-[(2-methoxypyridin-4-yl)amino]pyrimidin-4-yl}benzonitrile] | < 5 |
| 100 to 250 | < 5 |  | N#Cc1cc(-c2ccnc(Nc3ccc(N4CCCC4)nc3)n2)ccc1OC1CCOCC1 [Example Compound 5, 5-(2-{[6-(Pyrrolidin-1-yl)pyridin-3-yl]amino}pyrimidin-4-yl)-2-(tetrahydro-2H-pyran-4-yloxy)benzonitrile] | < 5 |
| 100 to 250 | < 5 |  | N#Cc1cc(-c2ccnc(Nc3ccnc(-c4cn[nH]c4)c3)n2)ccc1OC1CCOCC1 [Example Compound 83, 5-(2-{[2-(1H-Pyrazol-4-yl)pyridin-4-yl]amino}pyrimidin-4-yl)-2-(tetrahydro-2H-pyran-4-yloxy)benzonitrile] | < 5 |
| < 100 |  |  | COC1CN(c2cc(Nc3nccc(-c4ccc(OC5CCN(C(=O)CO)CC5)c(C#N)c4)n3)ccn2)C1 [Example Compound 249, 2-{[1-(Hydroxyacetyl)piperidin-4-yl]oxy}-5-(2-{[2-(3-methoxyazetidin-1-yl)pyridin-4-yl]amino}pyrimidin-4-yl)benzonitrile] | < 5 |
|  | < 5 | 250 to 1000 | COC1CN(Cc2cncc(Nc3nccc(-c4ccc(OC5CCOCC5)c(C#N)c4)n3)c2)C1 [Example Compound 23, 5-[2-({5-[(3-Methoxyazetidin-1-yl)methyl]pyridin-3-yl}amino)pyrimidin-4-yl]-2-(tetrahydro-2H-pyran-4-yloxy)benzonitrile] | < 5 |

— patent US20140288044A1, “COMPOSITIONS AND THERAPEUTIC USES OF IKK-RELATED KINASE EPSILON AND TANKBINDING KINASE 1 INHIBITORS” (Alzheimer's Institute of America, Inc., priority 2011, published 2014)
